In US9579381B2 (priority 2012, dated 2017):

Test system: H37Rv S315T (KatG mutant)
Format: cell-based, Mycobacterium tuberculosis

For NNC(=O)c1ccncc1 [INH, Isoniazid], the “dependence of activity on KatG” value was “dependent upon KatG”.
